The target of assay [1] is human osteoblastic (TE85) tyrosinephosphate phosphatase. It counts as biochemical. As to conditions: for IC50: read-out: TF85 IC50.
In assay [2] the target is T1, CD45 (Homo sapiens, UniProt P08575).
T1 sequence (P08575 26-1306): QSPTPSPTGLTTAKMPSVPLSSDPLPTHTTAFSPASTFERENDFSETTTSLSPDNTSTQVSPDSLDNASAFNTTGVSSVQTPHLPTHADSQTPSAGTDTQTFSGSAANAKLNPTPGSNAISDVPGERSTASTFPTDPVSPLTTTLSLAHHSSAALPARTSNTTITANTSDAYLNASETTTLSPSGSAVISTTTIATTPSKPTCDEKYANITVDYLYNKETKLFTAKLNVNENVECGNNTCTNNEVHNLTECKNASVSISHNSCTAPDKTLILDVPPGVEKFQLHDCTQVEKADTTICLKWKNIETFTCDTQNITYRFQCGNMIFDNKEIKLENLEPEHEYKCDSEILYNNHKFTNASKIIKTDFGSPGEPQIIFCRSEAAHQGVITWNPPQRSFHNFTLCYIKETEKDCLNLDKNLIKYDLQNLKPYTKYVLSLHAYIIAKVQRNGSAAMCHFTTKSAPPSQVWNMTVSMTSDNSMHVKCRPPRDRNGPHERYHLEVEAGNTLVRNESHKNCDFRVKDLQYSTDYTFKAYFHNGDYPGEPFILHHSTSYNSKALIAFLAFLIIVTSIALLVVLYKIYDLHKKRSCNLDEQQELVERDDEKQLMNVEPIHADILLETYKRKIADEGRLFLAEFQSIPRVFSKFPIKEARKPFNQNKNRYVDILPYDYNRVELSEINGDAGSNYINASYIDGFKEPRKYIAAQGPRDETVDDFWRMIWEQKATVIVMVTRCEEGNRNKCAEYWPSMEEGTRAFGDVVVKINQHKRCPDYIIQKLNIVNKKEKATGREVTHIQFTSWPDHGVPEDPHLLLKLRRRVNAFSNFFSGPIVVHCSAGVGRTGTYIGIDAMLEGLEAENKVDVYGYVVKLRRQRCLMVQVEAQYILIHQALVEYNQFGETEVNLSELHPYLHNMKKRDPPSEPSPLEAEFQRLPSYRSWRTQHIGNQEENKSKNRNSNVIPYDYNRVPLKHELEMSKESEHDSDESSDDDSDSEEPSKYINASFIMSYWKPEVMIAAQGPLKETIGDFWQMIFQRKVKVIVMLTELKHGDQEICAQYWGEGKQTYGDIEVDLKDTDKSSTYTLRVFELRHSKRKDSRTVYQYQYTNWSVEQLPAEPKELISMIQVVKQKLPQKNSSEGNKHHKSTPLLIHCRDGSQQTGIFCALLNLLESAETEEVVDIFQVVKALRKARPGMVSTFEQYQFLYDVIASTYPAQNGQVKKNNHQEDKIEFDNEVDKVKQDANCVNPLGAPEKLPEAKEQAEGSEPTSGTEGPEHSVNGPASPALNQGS
The following applies: read-out: IC50 (CD45).

For assay [3], the system named is human TE85 osteoblast-line cells. Description: Osteoblast Cell Proliferation (3H-thymidine incorporation). The class given is cell-based. The following applies: 24 h, read-out: Osteoblast Cell Prolif % X Control; for activity at 100 µM: concentration of drug 100 μM. The source says: The action of select compounds to stimulate osteoblast growth can be measured in culture by assuming the rate of DNA synthesis is proportional to the rate of ^3 H-thymidine incorporation into DNA. Only cells undergoing mitosis will synthesize new DNA and thus only these cells will incorporate the radiolabelled DNA-specific thymidine. The stimulation of the proliferation and differentiation of bone-forming cells, osteoblasts, is a prerequisite for an increase in bone formation and bone mass. The ability of agents to increase osteoblast proliferation and differentiation can be predicted (reference) by their action on cultured osteoblast-line cells in vitro. In this test human TE85 osteoblast-line cells (100,000) were plated on 24 well plates in DMEM containing 5% fetal calf serum for 48 hours. After removal of the media, 0.3 mL of serum-free media containing 0.25% BSA was added to each well. After 24 hours, the treatments were added to the conditioned media for an additional 24 hours. Tritiated thymidine (0.6uCi) was added for the last two hours. After rinsing the cells with Dulbeccos PBS, the cells were released from the plate by trypsinizing with 0.25 mL trypsin (0.25%) for 5-10 min. An equal aliquot of 25% TCA was added and the cell lysate allowd to stand for 15 minutes at 4° C. The lysate was centrifuged for 10 minutes, the supernatant removed, and the pellet washed with 0.2 mL of cold 80% ethanol. After a second centrifugation, the pellet was suspended in 0.1 mL 0.1% Triton X-1 00. The pellet was then sonicated to remove all of the material from the sides of the tube. This material was placed into a scintillation vial. An additional 0.08 mL of the Triton was used to rinse the tube before placing into the vial. These mbined samples were quantitated by scintillation spectrometry.
Background: Uptake of a labelled nucleoside into DNA is a usual measure of proliferation.

The target in assay [4] is T1, CD45. Description: biochemical.

Each structure is given as a SMILES string. Like-named read-outs stand apart in the source and are kept apart here.

For orientation: IC50 means the midpoint of a concentration-inhibition curve. `O=[N+]([O-])c1ccc(Cl)c(C(O)P(=O)(O)O)c1` (centres unmarked) [Example 2, (2-Chloro-5-nitro)phenylhydroxymethylphosphonic acid]: the 50% inhibitory concentration (IC50) in assay [1] is 35 µM; on CD45 [2] (enzyme from Jurkat cell (JEG-6) membranes, pH 6.0, 90 minutes at 37° C.) it was 20 µM.
Turning to `O=[N+]([O-])c1ccc(O)c(C(O)P(=O)(O)O)c1` (centres unmarked) [Example 7, (2-Hydroxy-5-nitro)phenylhydroxymethylphosphonic acid], in assay [1], the IC50 stood at 30 µM.
As to `O=[N+]([O-])c1ccc(Oc2ccccc2)c(C(O)P(=O)(O)O)c1` (centres unmarked) [Example 12, (2-Phenoxy-5-nitro)phenylhydroxymethylphosphonic acid], the IC50 in assay [1] was 18 µM; on CD45 [4], 14 µM. Further, the activity at 100 µM in assay [3] amounted to 112%.
On to `Cc1ccc(Oc2ccc([N+](=O)[O-])cc2C(O)P(=O)(O)O)cc1` (centres unmarked) [Example 14, [2-(4-Methyl)phenoxy-5-nitro]phenylhydroxymethyl phosphonic acid], for which the “TF85 % @ 300 μM” value in assay [1] (te85 cell extract, 15 min) amounted to 90%.
`O=[N+]([O-])c1ccc(Oc2cccnc2)c(C(O)P(=O)(O)O)c1` (centres unmarked) [Example 15, [2-(3-Pyridyl)oxy-5-nitro]phenylhydroxymethyl-phosphonic acid]: the IC50 in assay [1] was determined as 33 µM.
As for `O=[N+]([O-])c1ccc(Sc2ccccc2)c(C(O)P(=O)(O)O)c1` (centres unmarked) [Example 17, (2-Phenylthio-5-nitro)phenylhydroxymethylphosphonic acid], the concentration for half-maximal inhibition (IC50) in assay [1] amounted to 28 µM. Further, the activity at 100 µM in assay [3] was 119%.
Regarding `O=[N+]([O-])c1ccc(Sc2ccc(Cl)cc2)c(C(O)P(=O)(O)O)c1` (centres unmarked) [Example 19, [2-(4-Chlorophenylthio)-5-nitro]phenylhydroxymethylphosphonic acid], the “TF85 % @ 300 μM” value in assay [1] (te85 cell extract, 15 min) was found to be 95%. Moreover, the IC50 at CD45 [2] (pH 6) is 28 µM.
As to `O=[N+]([O-])c1ccc(Sc2cccc(C(F)(F)F)c2)c(C(O)P(=O)(O)O)c1` (centres unmarked) [Example 20, [2-(3-Trifluoromethyl)phenylthio-5-nitro]phenylhydroxymethylphosphonic acid], the IC50 in assay [1] worked out at 2.4 µM. Moreover, in assay [3], the activity at 100 µM was 139%.
As to `O=[N+]([O-])c1ccc(Sc2ccccn2)c(C(O)P(=O)(O)O)c1` (centres unmarked) [Example 22, [2-(2-Pyridyl)thio-5-nitro]phenylhydroxymethyl-phosphonic acid], the values for the concentration for half-maximal inhibition (IC50) (in assay [1]; at CD45 [2] (pH 6)) were 14 µM and 1 µM, respectively.
Turning to `COc1ccccc1Sc1ccc([N+](=O)[O-])cc1C(O)P(=O)(O)O` (centres unmarked) [Example 24, [2-(2-Methoxyphenylthio)-5-nitro]phenylhydroxymethylphosphonic acid], the half-maximal inhibitory concentration (IC50) in assay [1] was 23 µM.
With `O=[N+]([O-])c1ccc(SC2CCCCC2)c(C(O)P(=O)(O)O)c1` (centres unmarked) [Example 26, (2-Cyclohexylthio-5-nitro)phenylhydroxymethylphosphonic acid], the IC50 in assay [1] worked out at 5.8 µM; at CD45 [2] (pH 6), 1.2 µM. Also, the activity at 100 µM in assay [3] stood at 138%.
Consider `O=[N+]([O-])c1ccc(SCc2ccccc2)c(C(O)P(=O)(O)O)c1` (centres unmarked) [Example 28, (2-Benzylthio-5-nitro)phenylhydroxymethylphosphonic acid], for which the 50% inhibitory concentration (IC50) was found to be 6.3 µM in assay [1] and 6 µM against CD45 [4]. In addition, the activity at 100 µM in assay [3] is 111%.
On to `Cc1ccccc1CSc1ccc([N+](=O)[O-])cc1C(O)P(=O)(O)O` (centres unmarked) [Example 29, [2-(2-Methyl)benzylthio-5-nitro]phenylhydroxymethyl phosphonic acid], for which the 50% inhibitory concentration (IC50) in assay [1] is 9.4 µM.
The same measure, in the same setting: for `Cc1cccc(CSc2ccc([N+](=O)[O-])cc2C(O)P(=O)(O)O)c1` (centres unmarked) [Example 30, [2-(3-Methyl)benzylthio-5-nitro]phenylhydroxymethyl phosphonic acid] the value was 4.4 µM.
Regarding `Cc1ccc(CSc2ccc([N+](=O)[O-])cc2C(O)P(=O)(O)O)cc1` (centres unmarked) [Example 31, [2-(4-Methyl)benzylthio-5-nitro]phenylhydroxymethylphosphonic acid], the IC50 in assay [1] was determined as 0.82 µM. The activity at 30 µM in assay [3] (concentration of drug 30 μM) was determined as 159%.
`Cc1ccc(CCSc2ccc([N+](=O)[O-])cc2C(O)P(=O)(O)O)cc1` (centres unmarked) [Example 32, [2-(4-Methylphenylethylthio)-5-nitro]phenyl-hydroxymethyl phosphonic acid]: the “TF85 % @ 300 μM” value in assay [1] (te85 cell extract, 15 min) is on record as 73%.
On to `O=[N+]([O-])c1ccc(SCCCc2ccccc2)c(C(O)P(=O)(O)O)c1` (centres unmarked) [Example 34, [2-(3-Phenylpropyl)thio-5-nitro]phenylhydroxy-methyl phosphonic acid], for which the IC50 in assay [1] was found to be 0.45 µM. For the same compound, in assay [3], the activity at 100 µM is 127%.
Take `CCCCCCCCCCSc1ccc([N+](=O)[O-])cc1C(O)P(=O)(O)O` (centres unmarked) [Example 36, [2-(1-N-decyl)thio-5-nitro]phenylhydroxymethylphosphonic acid]: the IC50 in assay [1] came out at 1 µM.
As for `CCCCCCSc1ccc([N+](=O)[O-])cc1C(O)P(=O)(O)O` (centres unmarked) [Example 38, [2-(1-N-hexanyl)thio-5-nitro]phenylhydroxy-methylphosphonic acid], in assay [1], the IC50 is 1 µM.
Regarding `O=[N+]([O-])c1cc(C(O)P(=O)(O)O)cs1` (centres unmarked) [Example 40, 2-Nitro-4-thienylhydroxymethylphosphosphonic acid], the “TF85 % @ 300 μM” value in assay [1] (te85 cell extract, 15 min) is listed as 79%. Besides, the IC50 on CD45 [2] (pH 6) came to 38 µM.
With `O=[N+]([O-])c1ccc(C(O)P(=O)(O)O)s1` (centres unmarked) [Example 43, 5-Nitro-2-thiophenehydroxymethylphosphonic acid], the half-inhibitory concentration (IC50) in assay [1] came to 1 µM.
On the same count and under the same terms, for `O=Cc1ccc(OC(=O)c2ccccc2)c([N+](=O)[O-])c1` [Example 50, 3-Nitro-4-benzoyloxybenzaldehyde] the value was 17 µM.
The same measure, in the same setting: the value for `Cc1ccc(C(O)P(=O)(O)O)cc1[N+](=O)[O-]` (centres unmarked) [Example 52, (3-Nitro-4-methyl)phenylhydroxymethyphosphonic acid] was 30 µM.
For `O=[N+]([O-])c1cc(C(O)P(=O)(O)O)ccc1Sc1ccc(Br)cc1` (centres unmarked) [Example 54, [3-Nitro-4-(4-bromophenylthio)]phenylhydroxymethylphosphonic acid], the “TF85 % @ 30 μM” value in assay [1] (te85 cell extract, 15 min) amounted to 75%.
For the compound `O=[N+]([O-])c1cc(C(O)P(=O)(O)O)ccc1OCc1ccc(Cl)c(Cl)c1` (centres unmarked) [Example 56, [3-Nitro-4-(3,4-dichlorobenzyloxy)]phenylhydroxymethylphosphonic acid], the 50% inhibitory concentration (IC50) in assay [1] was 30 µM.
Same read-out and setting: the value for `O=C(c1cc([N+](=O)[O-])ccc1Cl)P(=O)(O)O` [Example 58, (2-Chloro-5-nitro)phenyloxomethylphosphonic acid] was 5 µM; that for `O=[N+]([O-])c1ccc(-c2ccccc2)c(C(O)P(=O)(O)O)c1` (centres unmarked) [Example 59, (2-Phenyl-5-nitro) phenylhydroxymethylphosphonic acid] was 10 µM.
